Experiments:
Format in all cases: in vivo
[1] = tested on: Abutilon theophrasti; experiment: Greenhouse preemergence herbicidal activity; conditions: ABUTH, 20 DAT
Method: (§1) The test plants have been seeded, separately for each species, in plastic containers in sandy loamy soil containing 5% of organic matter.
(§2) The containers were irrigated gently to promote germination and growth and subsequently covered with transparent plastic hoods until the plants had rooted.
(§3) The plants have been cultivated due to their individual requirements at 10-25° C. and 20-35° C. The plants were irrigated due to their necessity.
(§4) The racemic mixture (±)-2-exo-(2-M ethylbenzyloxy)-1-methyl-4-isopropyl-7-oxabicyclo[2.2.1]heptane was used as herbicide A and formulated as emulsifiable concentrates with an active ingredient concentration of 50 g/l, 100 g/I or 750 g/I respectively.
(§5) Imazamox (herbicide B.1) was used as a water dispersible granule (70% WG).
(§6) In the following experiments, the herbicidal activity for the individual herbicidal compositions (solo and mixture applications) was assessed 20 days after treatment (DAT).
(§7) The evaluation for the damage on undesired weeds caused by the chemical compositions was carried out using a scale from 0 to 100%, compared to the untreated control plants. Here, 0 means no damage and 100 means complete destruction of the plants.
(§8) E=X+Y−(X·Y/100) where X=effect in percent using herbicide A at an application rate a; • Y=effect in percent using herbicide B at application rate b; • E=expected effect (in %) of herbicide A+herbicide B at application rates a+b.

[2] = tested on: Amaranthus retroflexus; experiment: Greenhouse preemergence herbicidal activity; conditions: AMARE
Method: as §1, §2, §3, §4, §5, §6, §7, §8

[3] = tested on: Anthemis arvensis; experiment: Greenhouse preemergence herbicidal activity; conditions: ANTAR
Method: as §1, §2, §3, §4, §5, §6, §7, §8

[4] = tested on: Avena fatua; experiment: Greenhouse preemergence herbicidal activity; conditions: AVEFA
Method: as §1, §2, §3, §4, §5, §6, §7, §8

[5] = tested on: Chenopodium album; experiment: Greenhouse preemergence herbicidal activity; conditions: CHEAL, 20 DAT
Method: as §1, §2, §3, §4, §5, §6, §7, §8

[6] = tested on: Echinochloa crus-galli; experiment: Greenhouse preemergence herbicidal activity; conditions: ECHCG, 20 DAT
Method: as §1, §2, §3, §4, §5, §6, §7, §8

[7] = tested on: Galium aparine; experiment: Greenhouse preemergence herbicidal activity; conditions: GALAP, 20 DAT
Method: as §1, §2, §3, §4, §5, §6, §7, §8

[8] = tested on: Geranium dissectum; experiment: Greenhouse preemergence herbicidal activity; conditions: GERDI, 20 DAT
Method: as §1, §2, §3, §4, §5, §6, §7, §8

[9] = tested on: Lolium multiflorum; experiment: Greenhouse preemergence herbicidal activity; conditions: LOLMU
Method: as §1, §2, §3, §4, §5, §6, §7, §8

[10] = tested on: Polygonum convolvulus; experiment: Greenhouse preemergence herbicidal activity; conditions: POLCO, 20 DAT
Method: as §1, §2, §3, §4, §5, §6, §7, §8

[11] = tested on: Setaria viridis; experiment: Greenhouse preemergence herbicidal activity; conditions: SETVI
Method: as §1, §2, §3, §4, §5, §6, §7, §8

[12] = tested on: Sorghum halepense; experiment: Greenhouse preemergence herbicidal activity; conditions: SORHA, 20 DAT
Method: as §1, §2, §3, §4, §5, §6, §7, §8

[13] = tested on: Stellaria media; experiment: Greenhouse preemergence herbicidal activity; conditions: STEME
Method: as §1, §2, §3, §4, §5, §6, §7, §8

[14] = tested on: Anthemis arvensis; experiment: Greenhouse postemergence herbicidal activity; conditions: ANTAR, 20 DAT
Method: as §1
(§9) For the post emergence treatment, the plants were first grown to the 2 leaf station (GS 12). Here, the herbicidal compositions were suspended or emulsified in water as distribution medium and sprayed using finely distributing nozzles.
as §3, §4, §5, §6, §7, §8

[15] = tested on: Avena fatua; experiment: Greenhouse postemergence herbicidal activity; conditions: AVEFA, 20 DAT
Method: as §1, §9, §3, §4, §5, §6, §7, §8

[16] = tested on: Chenopodium album; experiment: Greenhouse postemergence herbicidal activity; conditions: CHEAL
Method: as §1, §9, §3, §4, §5, §6, §7, §8

[17] = tested on: Polygonum convolvulus; experiment: Greenhouse postemergence herbicidal activity; conditions: POLCO
Method: as §1, §9, §3, §4, §5, §6, §7, §8

[18] = tested on: Setaria viridis; experiment: Greenhouse postemergence herbicidal activity; conditions: SETVI
Method: as §1, §9, §3, §4, §5, §6, §7, §8

[19] = tested on: Sorghum halepense; experiment: Greenhouse postemergence herbicidal activity; conditions: SORHA, 20 DAT
Method: as §1, §9, §3, §4, §5, §6, §7, §8

[20] = herbicide A solo 25 g ai/ha, 20 DAT
[21] = herbicide A solo 37.5 g ai/ha, 20 DAT
[22] = herbicide A solo 75 g ai/ha, 20 DAT
[23] = herbicide A solo 100 g ai/ha, 20 DAT
[24] = herbicide A solo 150 g ai/ha, 20 DAT
[25] = herbicide A solo 200 g ai/ha, 20 DAT
[26] = herbicide A solo 300 g ai/ha, 20 DAT
[27] = herbicide A solo 50 g ai/ha, 20 DAT
[28] = herbicide A solo 62.5 g ai/ha, 20 DAT
[29] = herbicide A solo 250 g ai/ha, 20 DAT
[30] = herbicide A solo 125 g ai/ha, 20 DAT
[31] = herbicide A solo 43.8 g ai/ha, 20 DAT
[32] = imazamox solo 4.4 g ai/ha, 20 DAT
[33] = imazamox solo 4.4 g ai/ha, 20 DAT (line of 25 + 4.4)
[34] = imazamox solo 8.8 g ai/ha, 20 DAT
[35] = imazamox solo 17.5 g ai/ha, 20 DAT
[36] = imazamox solo 17.5 g ai/ha, 20 DAT (line of 100 + 17.5)
[37] = imazamox solo 35 g ai/ha, 20 DAT
[38] = imazamox solo 35 g ai/ha, 20 DAT (line of 200 + 35)
[39] = imazamox solo 8.8 g ai/ha, 20 DAT (line of 50 + 8.8)
[40] = imazamox solo 4.4 g ai/ha, 20 DAT (line of 43.8 + 4.4)

(±)-2-exo-(2-Methylbenzyloxy)-1-methyl-4-isopropyl-7-oxabicyclo[2.2.1]heptane [herbicide A]
herbicidal activity ([1]; herbicide A solo 100 g ai/ha): 0% | herbicidal activity ([1]; herbicide A solo 200 g ai/ha): 0% | herbicidal activity [2, 20]: 0% | herbicidal activity [2, 21]: 0% | herbicidal activity [2, 22]: 0% | herbicidal activity [2, 23]: 0% | herbicidal activity [2, 24]: 0% | herbicidal activity [2, 25]: 0% | herbicidal activity [2, 26]: 0% | herbicidal activity [3, 27]: 0% | herbicidal activity [3, 28]: 0% | herbicidal activity [3, 24]: 0% | herbicidal activity [3, 25]: 0% | herbicidal activity [3, 26]: 0% | herbicidal activity [4, 27]: 0% | herbicidal activity [4, 22]: 20% | herbicidal activity [4, 23]: 20% | herbicidal activity [4, 29]: 65% | herbicidal activity ([5]; herbicide A solo 37.5 g ai/ha): 20% | herbicidal activity ([6]; herbicide A solo 62.5 g ai/ha): 98% | herbicidal activity ([6]; herbicide A solo 125 g ai/ha): 98% | herbicidal activity ([7]; herbicide A solo 25 g ai/ha): 0% | herbicidal activity ([7]; herbicide A solo 200 g ai/ha): 30% | herbicidal activity ([8]; herbicide A solo 125 g ai/ha): 70% | herbicidal activity [9, 20]: 50% | herbicidal activity [9, 21]: 60% | herbicidal activity [9, 30]: 90% | herbicidal activity ([10]; herbicide A solo 125 g ai/ha): 0% | herbicidal activity [11, 20]: 75% | herbicidal activity [11, 28]: 98% | herbicidal activity [11, 22]: 98% | herbicidal activity ([12]; herbicide A solo 62.5 g ai/ha): 80% | herbicidal activity [13, 27]: 20% | herbicidal activity [13, 22]: 20% | herbicidal activity [13, 24]: 30% | herbicidal activity ([14]; herbicide A solo 500 g ai/ha): 65% | herbicidal activity ([15]; herbicide A solo 43.8 g ai/ha): 25% | herbicidal activity [16, 31]: 60% | herbicidal activity [16, 28]: 30% | herbicidal activity [16, 30]: 50% | herbicidal activity [17, 28]: 25% | herbicidal activity ([17]; herbicide A solo 175 g ai/ha, 20 DAT): 50% | herbicidal activity [17, 29]: 40% | herbicidal activity ([17]; herbicide A solo 350 g ai/ha, 20 DAT): 50% | herbicidal activity [18, 31]: 75% | herbicidal activity [18, 28]: 85% | herbicidal activity ([19]; herbicide A solo 62.5 g ai/ha): 40% | herbicidal activity ([19]; herbicide A solo 175 g ai/ha): 50% | herbicidal activity ([19]; herbicide A solo 350 g ai/ha): 70%

COCc1cnc(C2=NC(C)(C(C)C)C(=O)N2)c(C(=O)O)c1 (racemic) [imazamox, 2-[(RS)-4-isopropyl-4-methyl-5-oxo-2-imidazolin-2-yl]-5-methoxymethylnicotinic acid]
herbicidal activity ([1]; imazamox solo 17.5 g ai/ha): 70% | herbicidal activity ([1]; imazamox solo 35 g ai/ha): 75% | herbicidal activity [2, 32]: 75% | herbicidal activity [2, 33]: 75% | herbicidal activity [2, 34]: 90% | herbicidal activity [2, 35]: 95% | herbicidal activity [2, 36]: 95% | herbicidal activity [2, 37]: 95% | herbicidal activity [2, 38]: 95% | herbicidal activity [3, 32]: 0% | herbicidal activity [3, 34]: 0% | herbicidal activity [3, 35]: 20% | herbicidal activity [3, 37]: 65% | herbicidal activity [3, 38]: 65% | herbicidal activity [4, 34]: 20% | herbicidal activity [4, 39]: 20% | herbicidal activity [4, 35]: 65% | herbicidal activity [4, 36]: 65% | herbicidal activity ([5]; imazamox solo 4.4 g ai/ha): 0% | herbicidal activity ([6]; imazamox solo 4.4 g ai/ha): 30% | herbicidal activity ([6]; imazamox solo 8.8 g ai/ha): 40% | herbicidal activity ([7]; imazamox solo 4.4 g ai/ha): 0% | herbicidal activity ([7]; imazamox solo 35 g ai/ha): 75% | herbicidal activity ([8]; imazamox solo 8.8 g ai/ha): 0% | herbicidal activity [9, 32]: 0% | herbicidal activity [9, 33]: 0% | herbicidal activity [9, 34]: 70% | herbicidal activity ([10]; imazamox solo 8.8 g ai/ha): 25% | herbicidal activity [11, 33]: 20% | herbicidal activity ([11]; imazamox solo 4.4 g ai/ha, 20 DAT (line of 62.5 + 4.4)): 60% | herbicidal activity [11, 34]: 65% | herbicidal activity ([12]; imazamox solo 4.4 g ai/ha): 10% | herbicidal activity [13, 34]: 80% | herbicidal activity [13, 39]: 80% | herbicidal activity [13, 35]: 95% | herbicidal activity ([14]; imazamox solo 35 g ai/ha): 98% | herbicidal activity ([15]; imazamox solo 4.4 g ai/ha): 70% | herbicidal activity [16, 32]: 90% | herbicidal activity [16, 40]: 90% | herbicidal activity [16, 34]: 95% | herbicidal activity [17, 32]: 90% | herbicidal activity [17, 35]: 95% | herbicidal activity ([17]; imazamox solo 17.5 g ai/ha, 20 DAT (line of 175 + 17.5)): 95% | herbicidal activity [17, 37]: 95% | herbicidal activity [18, 32]: 95% | herbicidal activity [18, 40]: 95% | herbicidal activity ([19]; imazamox solo 4.4 g ai/ha): 90% | herbicidal activity ([19]; imazamox solo 17.5 g ai/ha): 95% | herbicidal activity ([19]; imazamox solo 35 g ai/ha): 98%

Reference: patent US11219212B2, “Herbicidal composition comprising cinmethylin and imazamox” (BASF Agro B.V., priority 2015, dated 2022)
